The source of these data is patent US20250114289A1, “HAIR DYE COMPOSITION” (The Procter & Gamble Company, priority 2023, published 2025).

Data set [1] is described as follows: Solubility of photochromic dyes in cosmetically acceptable solvents. The format is physicochemical. The source says: Thus, it is important to select a solvent that is suitable for use on human skin and hair and enables formulation of a stable hair dye composition with sufficient dye to provide good hair coloring results.
Data set [2] can be described thus: Activating EMR and deactivating EMR wavelengths of diarylethene photochromic dyes. The format is physicochemical. Particulars: for peak activating EMR: FIG. 5; for peak deactivating EMR: FIG. 6. The text has this: The activation and deactivation properties are illustrated in FIGS. 5 and 6, respectively.

Take `Cc1cc(C)c(C2=C(c3sc(C)cc3C)C(F)(F)C(F)(F)C2(F)F)s1` [DAE-0068, 5,5′-(perfluorocyclopent-1-ene-1,2-diyl)bis(2,4-dimethylthiophene)]: the Max concentration in data set [1] (solvent Caprylic triglyceride) worked out at 3.46 % w/w; in data set [1] (solvent Isopropyl isostearate) it was 3.41 % w/w; in data set [1] (solvent Isopropyl myristate) it was 3.09 % w/w; in data set [1] (solvent Oleyl alcohol) it was 1.34 % w/w; in data set [1] (solvent Polysorbate 20), 0.95 % w/w; in data set [1] (solvent Polysorbate 80) it was 0.89 % w/w. Further, in data set [2], the “peak activating EMR” value is recorded as 330-360 nm. The “peak deactivating EMR” value in data set [2] is 410-450 nm.

As to `Cc1sc(-c2ccccc2)nc1C1=C(c2nc(-c3ccccc3)sc2C)C(F)(F)C(F)(F)C1(F)F` [DAE-0012, 4,4′-(perfluorocyclopent-1-ene-1,2-diyl)bis(5-methyl-2-phenylthiazole)], the Max concentration in data set [1] (solvent Caprylic triglyceride) is recorded as 0.91 % w/w; in data set [1] (solvent Isopropyl isostearate) it was 2.32 % w/w; in data set [1] (solvent Isopropyl myristate), 2.25 % w/w; in data set [1] (solvent Oleyl alcohol), 0.79 % w/w; in data set [1] (solvent Polysorbate 20), 1.78 % w/w; in data set [1] (solvent Polysorbate 80), 2.20 % w/w. Moreover, in data set [2], the “peak activating EMR” value is recorded as 290-310 nm. Moreover, the “peak deactivating EMR” value in data set [2] is 510-540 nm.

As for `Cc1sc(-c2ccccc2)cc1C1=C(c2cc(-c3ccccc3)sc2C)C(F)(F)C(F)(F)C1(F)F` [DAE-0001, 3,3′-(perfluorocyclopent-1-ene-1,2-diyl)bis(2-methyl-5-phenylthiophene)], the Max concentration in data set [1] (solvent Caprylic triglyceride) worked out at 0.66 % w/w; in data set [1] (solvent Isopropyl isostearate), 4.95 % w/w; in data set [1] (solvent Isopropyl myristate), 4.8 % w/w; in data set [1] (solvent Oleyl alcohol), 1.47 % w/w; in data set [1] (solvent Polysorbate 20), 0.9 % w/w; in data set [1] (solvent Polysorbate 80) it was 1.08 % w/w. The “peak deactivating EMR” value in data set [2] was 560-610 nm.
